Here are results for five compounds from patent US20090047243A1, “COMBINATIONS FOR THE TREATMENT OF B-CELL PROLIFERATIVE DISORDERS” (priority 2007, published 2009).

Test [1] relates to phosphodiesterase (PDE) types. The following applies: PDE type(s) in brackets after the name; cited from earlier work.
The test system of test [2] is RPMI-8226 multiple myeloma cell line. Briefly: Anti-proliferation assay (ATPLite, 72 h). It counts as cell-based, human. More on the design: key: S = lnfX·lnfY·ΣIdata(Idata−ILoewe), volume over Loewe additivity. A digest of the protocol:
(§1)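 ATPLite luminescence readout; ANBL6 medium + 10 ng/ml IL-6. Single agents tested at 12 concentrations, 2- or 3-fold serial dilutions. % inhibition vs untreated-well mean.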
(ATP-based viability assays read luminescence as a measure of living cells.)

Test [3] concerns H929 multiple myeloma cell line. The test can be described thus: Anti-proliferation assay (ATPLite, 72 h). More on the design: key: S = lnfX·lnfY·ΣIdata(Idata−ILoewe), volume over Loewe additivity. It counts as cell-based, human. A digest of the protocol: as §1
For test [4], the system named is human multiple myeloma cells (MM.1S). Briefly: Anti-proliferation assay (ATPLite, 72 h). It counts as cell-based. The arrangement: key to synergy score / synergy (score), PDEi × HE-NECA: S = lnfX·lnfY·ΣIdata(Idata−ILoewe), volume over Loewe additivity. A digest of the protocol: as §1
The test system of test [5] is human multiple myeloma cells (MM.1R). The test can be described thus: Anti-proliferation assay (ATPLite, 72 h). It counts as cell-based. More on the design: key: S = lnfX·lnfY·ΣIdata(Idata−ILoewe), volume over Loewe additivity. The procedure: ANBL6 and INA-6 culture media was also supplemented with 10 ng/ml IL-6. […] MM.1S, MM.1R, OCI-ly10, Karpas 422, and SU-DHL6 cells were provided by the Dana Farber Cancer Institute. H929, RPMI-8226, GA-10, and Farage cells were from ATCC (Cat #'s CCL-155, CRL-9068, CRL-2392 and CRL-2630 respectively). MOLP-8, EJM, KSM-12-PE, and OPM2 were from DSMZ. The ANBL6 and INA-6 cell lines were provided by the M. D. Anderson Cancer Research Center. Compounds were prepared in DMSO at 1000× the highest desired concentration. Master plates were generated consisting of serially diluted compounds in 2- or 3-fold dilutions in 384-well format. For single agent dose response curves, the master plates consisted of 9 individual compounds at 12 concentrations in 2- or 3-fold dilutions. For combination matrices, master plates consisted of individual compounds at 6 or 9 concentrations at 2- or 3-fold dilutions. […] To obtain combination data, two master plates were diluted into the assay plates. […] Thirty microliters of ATPLite (Perkin Elmer) at room temperature was then added to each well. […] Measurements were taken at the top of the well using a luminescence aperture and a read time of 0.1 seconds per well. The percent inhibition (% I) for each well was calculated using the following formula: % I=[(avg. untreated wells-treated well)/(avg. untreated wells)]×100. […] Negative inhibition values result from local variations in treated wells as compared to untreated wells. […] The uncertainty of each fitted parameter was estimated from the range over which the change in reduced chi-squared was less than one, or less than minimum reduced chi-squared if that minimum exceeded one, to allow for underestimated σI errors. Single agent curve data were used to define a dilution series for each compound to be used for combination screening in a 6×6 matrix format. […] The Loewe additivity model was used to quantify combination effects. […] A “Synergy Score” was also used, where the Synergy Score S=log fX log fY ΣIdata(Idata-ILoewe), summed over all non-single-agent concentration pairs, and where log fX,Y is the natural logarithm of the dilution factors used for each single agent. This effectively calculates a volume between the measured and Loewe additive response surfaces, weighted towards high inhibition and corrected for varying dilution factors. An uncertainty σS was calculated for each synergy score, based on the measured errors for the Idata values and standard error propagation.

Setting [6] is: in combination with adenosine receptor agonist ADAC, RPMI-8226.
Where [7] appears, read: PDE inhibitor crossed with (S) ENBA, H929.
The mark [8] stands for this setting: PDE inhibitor crossed with ADAC, H929.
The mark [9] stands for this setting: PDE inhibitor crossed with Chloro-IB-MECA, H929.
[10] abbreviates: PDE inhibitor crossed with HE-NECA, H929.
[11] abbreviates: in combination with adenosine receptor agonist ADAC, H929.
Where [12] appears, read: PDE inhibitor crossed with (S) ENBA, MM.1S.
The mark [13] stands for this setting: PDE inhibitor crossed with ADAC, MM.1S.
The mark [14] stands for this setting: PDE inhibitor crossed with Chloro-IB-MECA, MM.1S.
[15] abbreviates: PDE inhibitor crossed with HE-NECA, MM.1S.
Setting [16] is: in combination with adenosine receptor agonist ADAC, MM.1S.
The mark [17] stands for this setting: in combination with adenosine receptor agonist ADAC, MM.1R.
Setting [18] is: in combination with adenosine receptor agonist CGS-21680, RPMI 8226.
Setting [19] is: in combination with adenosine receptor agonist HE-NECA, RPMI-8226.
The mark [20] stands for this setting: in combination with adenosine receptor agonist regadenoson, RPMI 8226.
Setting [21] is: in combination with adenosine receptor agonist CGS-21680, H929.
The mark [22] stands for this setting: in combination with adenosine receptor agonist HE-NECA, H929.
Where [23] appears, read: in combination with adenosine receptor agonist regadenoson, H929.
[24] abbreviates: in combination with adenosine receptor agonist CGS-21680, MM.1S.
The mark [25] stands for this setting: in combination with adenosine receptor agonist HE-NECA, MM.1S.
The mark [26] stands for this setting: in combination with adenosine receptor agonist regadenoson, MM.1S.
Where [27] appears, read: in combination with adenosine receptor agonist CGS-21680, MM.1R.
[28] abbreviates: in combination with adenosine receptor agonist regadenoson, MM.1R.

What is called inhibition is the share of the control response that was lost under treatment. As for `CCCCOc1cc(CC2CNC(=O)N2)ccc1OC` (centres unmarked) [RO-20-1724, 4-(3-butoxy-4-methoxybenzyl)-2-imidazolidinone], in test [1], the “PDE inhibitors (specificity)” value is on record as “RO-20-1724 (4)”. In addition, the synergy score in test [2] (setting [6]) stood at 0.51; in test [3] (setting [7]), 0.09; in test [3] (setting [8]) it was 1.11; in test [3] (setting [9]), 1.14; in test [3] (setting [10]), 2.51; in test [3] (setting [11]), 1.1. Moreover, the synergy score in test [4] (setting [12]) came out at 0.73; in test [4] (setting [13]), 1.71; in test [4] (setting [14]) it was 1.6; in test [4] (setting [15]), 3.58; in test [4] (setting [16]), 1.71; in test [5] (setting [17]), 3.42. Further, the inhibition at 2.28 µM in test [4] (Homo sapiens, MM1.S, RO-20-1724 2.28 μM, HE-NECA conc. (nM), read-out: Percent inhibition of ATP in MM.1S cells) was 2.3%. Besides, in test [4] (Homo sapiens, MM1.S, RO-20-1724 4.55 μM, HE-NECA conc. (nM), read-out: Percent inhibition of ATP in MM.1S cells), the inhibition at 4.55 µM was 11%. In addition, in test [4] (Homo sapiens, MM1.S, RO-20-1724 18.2 μM, HE-NECA conc. (nM), read-out: Percent inhibition of ATP in MM.1S cells), the inhibition at 18.2 µM turned out to be 10%. Also, the inhibition at 36.4 µM in test [4] (Homo sapiens, MM1.S, RO-20-1724 36.4 μM, HE-NECA conc. (nM), read-out: Percent inhibition of ATP in MM.1S cells) was 1.4%.

On to `O=C1CCc2cc(OCCCCc3nnnn3C3CCCCC3)ccc2N1` [Cilostazol, 6-[4-(1-cyclohexyl-1H-tetrazol-5-yl)butoxy]-3,4-dihydro-2(1H)-quinolinone], for which, in test [1], the “PDE inhibitors (specificity)” value is recorded as “Cilostazol (3)”. Further, the synergy score in test [2] (setting [18]) was determined as 0.37; in test [2] (setting [19]), 0.2486; in test [2] (setting [20]), 0.12; in test [3] (setting [7]), 0.4; in test [3] (setting [8]), 0.36; in test [3] (setting [9]), 0.46. Besides, the synergy score came out at 1.21 in test [3] (setting [10]); 1.12 in test [3] (setting [21]); 0.6849 in test [3] (setting [22]); 1.34 in test [3] (setting [23]); 1.73 in test [4] (setting [12]); 0.89 in test [4] (setting [13]). In addition, the synergy score was 0.75 in test [4] (setting [14]); 3.50 in test [4] (setting [15]); 4.09 in test [4] (setting [24]); 1.849 in test [4] (setting [25]); 1.85 in test [4] (setting [26]); 1.57 in test [5] (setting [27]). In addition, in test [5] (setting [28]), the synergy score is listed as 0.76.

On to `CN(C(=O)CCCOc1ccc2[nH]c(=O)ccc2c1)C1CCCCC1` [Cilostamide, N-cyclohexyl-4-((1,2-dihydro-2-oxo-6-quinolinyl)oxy)-N-methyl-butanamide], for which the “PDE inhibitors (specificity)” value in test [1] was “Cilostamide (3)”. The synergy score was 0.2381 in test [2] (setting [19]); 1.17 in test [3] (setting [7]); 0.65 in test [3] (setting [9]); 0.28 in test [3] (setting [10]); 1.67 in test [3] (setting [22]); 1.1 in test [4] (setting [14]). Moreover, the synergy score in test [4] (setting [15]) came to 0.49; in test [4] (setting [25]) it was 1.637; in test [5] (in combination with adenosine receptor agonist HE-NECA, MM.1R), 1.692. Also, the “synergy (score), PDEi × HE-NECA” value in test [3] (6×6 cross of PDE inhibitor or PDE inhibitor mixture with HE-NECA, H929) came out at 0.56; in test [4] (6×6 cross of PDE inhibitor or PDE inhibitor mixture with HE-NECA, MM.1S), 1.02.

Take `Cc1ccc([N+](=O)[O-])cc1S(=O)(=O)N(C)C` [BRL-50481, 3-(N,N-dimethylsulfonamido)-4-methyl-nitrobenzene]: the “PDE inhibitors (specificity)” value in test [1] is reported as “BRL-50481(7)”. Moreover, the synergy score in test [2] (setting [18]) was found to be 0.19; in test [2] (setting [19]) it was 0.147; in test [2] (setting [20]) it was 0.39; in test [3] (setting [7]), 0.26; in test [3] (setting [9]), 0.34; in test [3] (setting [10]), 0.23. Moreover, the synergy score in test [3] (setting [21]) is given as 0.34; in test [3] (setting [22]), 0.193; in test [3] (setting [23]) it was 0.19; in test [4] (setting [12]), 1.22; in test [4] (setting [14]) it was 1.47; in test [4] (setting [15]) it was 1.41. In addition, the synergy score in test [4] (setting [24]) is reported as 1.78; in test [4] (setting [25]) it was 1.38; in test [4] (setting [26]) it was 0.82; in test [5] (setting [27]), 1.22; in test [5] (setting [28]), 1.09.

Consider `COc1ccc(C2CNC(=O)C2)cc1OC1CCCC1` (centres unmarked) [Rolipram, 4-(3-cyclopentyloxy-4-methoxyphenyl)-2-pyrrolidone], for which the “PDE inhibitors (specificity)” value in test [1] was “Rolipram (4)”. Moreover, the synergy score in test [2] (setting [6]) turned out to be 0.4277; in test [2] (setting [19]), 0.2845; in test [3] (setting [7]), 0.46; in test [3] (setting [8]), 1.11; in test [3] (setting [9]), 0.74; in test [3] (setting [10]), 1.09. Also, the synergy score in test [3] (setting [11]) is given as 1.114; in test [3] (setting [22]), 1.089; in test [4] (setting [12]), 0.73; in test [4] (setting [13]), 1.15; in test [4] (setting [14]), 1.11; in test [4] (setting [15]) it was 1.08. For the same compound, the synergy score in test [4] (setting [16]) is on record as 1.147; in test [4] (setting [25]), 1.076; in test [5] (setting [17]), 4.105.
